Reference: patent US20040033483A1, “Cell diagnosing method, and device and apparatus use for it” (priority 2001, published 2004)

Key:
[1] = test system: normal cells prepared from the fundus of rat stomach; assay: Electrical signal of cells on the cell diagnosis device on applying Carbachol, normal cells; format: cell-based
Experimental: (§1) A cell diagnosis apparatus comprising the device shown in FIG. 3 as a measuring section (signal source) 101, which has a configuration shown in FIG. 4, was used. Normal cells and cancer cells were prepared as samples from the fundus of rat stomach. The apparatus was used to measure the action of a chemical substance, Carbachol, on these samples.
Carbachol is a chemical substance known as an analog of the neurotransmitter Acetylcholine. Carbachol (manufactured by Sigma) was dissolved in Krebs Ringer solution to concentrations of 0, 0.1, 0.3, 1, 3 10, 30 and 100 μM. The solutions having these concentrations were used to measure an electrical signal when each solution was applied to the normal cells and the cancer cells derived from the fundus of stomach. For each Carbachol concentration, time-series signal values for 10 seconds were obtained from the measuring section (signal source) 101 comprising the cell diagnosis device shown in FIG. 3, and was sampled at intervals of 100 msec to obtain time-series data, and the standard deviation of the sampling data was calculated. […]
(§2) Before and after 50 μM-concentration Carbachol was applied to the normal cells and the cancer cells prepared from the fundus of rat stomach, signals were obtained from the measuring section (signal source) 101, and the standard deviation of the signals was calculated in a manner similar to that of Example 1.

[2] = test system: cancer cells prepared from the fundus of rat stomach; assay: Electrical signal of cells on the cell diagnosis device on applying Carbachol, cancer cells; format: cell-based
Experimental: as §1
Carbachol is a chemical substance known as an analog of the neurotransmitter Acetylcholine. Carbachol (manufactured by Sigma) was dissolved in Krebs Ringer solution to concentrations of 0, 0.1, 0.3, 1, 3 10, 30 and 100 μM. The solutions having these concentrations were used to measure an electrical signal when each solution was applied to the normal cells and the cancer cells derived from the fundus of stomach. For each Carbachol concentration, time-series signal values for 10 seconds were obtained from the measuring section (signal source) 101 comprising the cell diagnosis device shown in FIG. 3, and was sampled at intervals of 100 msec to obtain time-series data, and the standard deviation of the sampling data was calculated. The average of the standard deviation was plotted in FIG. 8. In FIG. 8, black circles indicate results obtained from cells including cancer cells and white circles indicate results obtain from normal cells.
The apparatus having the configuration shown in FIG. 5, which comprises the device shown in FIG. 3 as a measuring section (signal source), was used to measure the action of Carbachol on samples, where the samples were normal cells and cells including cancer cells prepared from the fundus of rat stomach, as in Example 1.
as §2

[3] = 50 μM Carbachol, before versus after application, 10 seconds, FIG. 9
[4] = Carbachol 0, 0.1, 0.3, 1, 3, 10, 30 and 100 μM in Krebs Ringer solution, 10 seconds signal, FIG. 8

C[N+](C)(C)CCOC(N)=O [Carbachol]
average of the standard deviation every 5 msec after applying Carbachol [1, 3]: increased | average of the standard deviation of the electrical signal at 100 msec intervals [1, 4]: the higher the Carbachol concentration, the higher the average of the standard deviation | average and half-width of the normal distribution of standard deviations compared with the normal cell ([2]; 50 μM Carbachol, FIG. 9): larger average and half-width values than those of the normal cell | average of the standard deviation every 5 msec after applying Carbachol [2, 3]: increased | average of the standard deviation of the electrical signal at 100 msec intervals [2, 4]: the higher the Carbachol concentration, the higher the average of the standard deviation
